Experimental data as given in patent publication US20250032451A1, “MICROSPHERE FORMULATIONS COMPRISING ASENAPINE AND METHODS FOR MAKING AND USING THE SAME” (Oakwood Laboratories, LLC, priority 2021, published 2025).
Counter-ions that a name gives are not always drawn. Like-named read-outs stand apart in the source and are kept apart here.

Assays:
[1] = pKa of asenapine maleate; type: physicochemical
[2] = Solubility of asenapine maleate in water and solvents; type: physicochemical

CN1C[C@@H]2c3ccccc3Oc3ccc(Cl)cc3[C@H]2C1 (racemic) [asenapine maleate]
pKa [1]: 8.64 | solubility ([2]; N-methylpyrrolidone, organic solvent or mixture, NMP, read-out: N-methylpyrrolidone (NMP) solubility): 700 mg/mL | solubility ([2]; benzyl alcohol, organic solvent or mixture, BA, read-out: benzyl alcohol (BA) solubility): 500 mg/mL | solubility ([2]; dichloromethane, organic solvent or mixture, DCM, read-out: dichloromethane (DCM) solubility): 324 mg/mL | solubility ([2]; dimethyl sulfoxide, organic solvent or mixture, DMSO, read-out: dimethyl sulfoxide (DMSO) solubility): 700 mg/mL | solubility ([2]; ethanol, organic solvent or mixture, EtOH, read-out: ethanol (EtOH) solubility): 100 mg/mL | solubility ([2]; ethyl acetate, organic solvent or mixture, EA, read-out: ethyl acetate (EA) solubility): 10 mg/mL | solubility ([2]; water, read-out: water solubility): 3 mg/mL
